From patent US10781224B2, “Bis(oxymethyl)phosphinic acid and biogenic metal salts thereof as regulators of plant growth and development” (priority 2016, dated 2020)

How the values were obtained:
rice (Diamant variety) [1] = assay: Rice seed treatment with BHMPA salts: germinating power; type: in vivo
Protocol: (§1) Experimental versions—soaking seeds in BHMPA solutions and solutions of BHMPA Ca, Mg, Na, Co, Mn, Cu, and Zn salts at 1·10^−6-1·10^−12% concentrations (doses). The studies were conducted in laboratory in Petri dishes; seed bed—two layers of filter paper. 50 seeds soaked in water (control) and in the solutions of the tested compounds (experimental) were placed into each dish. Wheat, corn, and rice seeds were exposed for one hour.
(§2) Seed germination energy and rate were calculated in percent as an arithmetic mean of the four experimental results (germination energy on the 4th day, wheat germination on the 8th day, rice and corn germination—on the 7th day). Germination was determined based on the germinating power indicators (length of the roots and sprouts and their wet and dry mass per 100 shoots).
(§3) The effect of pre-sowing seed treatment with the claimed BHMPA salts of biogenic metals was studied on winter wheat (Vershin variety), corn (Krasnodar 385 MV variety), and rice (Diamant variety).
The above data describe the seed viability only at the initial stage of germination, while the germination ability at the later stage of germination is defined by the initial germinating power. The method for the determination of the germinating power comprises measuring the height of the sprouts and primary roots, as well as the biomass and the dry mass thereof per 100 seedlings. [M. A. Kartuzova. Initial Germinating Power as Method of Biological Assessment of Seed Quality. Selection and Seed Farming, #2, 1953].

rice (Diamant variety) [2] = assay: Rice seed treatment with BHMPA salts: germination energy and germination rate; type: in vivo
Protocol: Control—Soaking Seeds in Water;
as §1
Analysis was conducted according to the government standards GOST 12038-84 “Crop seeds. Technical conditions for determining the germination energy and germination rate”, GOST 12044-93 “Crop seeds. Methods for determining disease contamination.”
as §2, §3

[3] = rice seed treatment, comparison with Melaphen (Table XXXIII), solution 1 · 10^−9%
[4] = rice seeds, solution concentration 1 · 10^−6%
[5] = rice seeds, solution concentration 1 · 10^−7%
[6] = rice seeds, solution concentration 1 · 10^−8%
[7] = rice seeds, solution concentration 1 · 10^−9%
[8] = rice seeds, solution concentration 1 · 10^−10%
[9] = rice seeds, solution concentration 1 · 10^−11%
[10] = rice seeds, solution concentration 1 · 10^−12%
[11] = rice, vs control, 1·10^−9% solution
[12] = rice seed treatment, solution 1 · 10^−9%
[13] = seed treatment, concentration 1 · 10^−6%
[14] = seed treatment, concentration 1 · 10^−7%
[15] = seed treatment, concentration 1 · 10^−8%
[16] = seed treatment, concentration 1 · 10^−9%
[17] = seed treatment, concentration 1 · 10^−10%
[18] = seed treatment, concentration 1 · 10^−11%
[19] = seed treatment, concentration 1 · 10^−12%

O=P([O-])(CO)CO.O=P([O-])(CO)CO.[Ca+2] [Ca-salt, Calcium BHMPA Salt]
optimum concentration for treating rice seeds before sowing (rice (Diamant variety) [1]; rice): 1·10^−9%
Length, root (rice (Diamant variety) [1]; [3]): 6.2 cm
Length, root, + % to control (rice (Diamant variety) [1]; [3]): 29%
Length, sprout (rice (Diamant variety) [1]; [3]): 3.5 cm
Length, sprout, + % to control (rice (Diamant variety) [1]; [3]): 35%
Mass, dry, root (rice (Diamant variety) [1]; [3]): 0.23 g/100 plantlings
Mass, dry, root, + % to control (rice (Diamant variety) [1]; [3]): 9.5%
Mass, dry, sprout (rice (Diamant variety) [1]; [3]): 0.27 g/100 plantlings
Mass, dry, sprout, + % to control (rice (Diamant variety) [1]; [3]): 8%
Mass, wet, root (rice (Diamant variety) [1]; [3]): 1.33 g/100 plantlings
Mass, wet, root, + % to control (rice (Diamant variety) [1]; [3]): 36%
Mass, wet, sprout (rice (Diamant variety) [1]; [3]): 2.24 g/100 plantlings
Mass, wet, sprout, + % to control (rice (Diamant variety) [1]; [3]): 48%
Length, root (rice (Diamant variety) [1]; [4]): 5.7 cm
Length, root, + % to control (rice (Diamant variety) [1]; [4]): 10%
Length, sprout (rice (Diamant variety) [1]; [4]): 2.8 cm
Length, sprout, + % to control (rice (Diamant variety) [1]; [4]): 12%
Mass, dry, root (rice (Diamant variety) [1]; [4]): 0.19 g/100 plantlings
Mass, dry, root, + % to control (rice (Diamant variety) [1]; [4]): 12%
Mass, dry, sprout (rice (Diamant variety) [1]; [4]): 0.23 g/100 plantlings
Mass, dry, sprout, + % to control (rice (Diamant variety) [1]; [4]): 9.5%
Mass, wet, root (rice (Diamant variety) [1]; [4]): 1.10 g/100 plantlings
Mass, wet, root, + % to control (rice (Diamant variety) [1]; [4]): 14.5%
Mass, wet, sprout (rice (Diamant variety) [1]; [4]): 1.92 g/100 plantlings
Mass, wet, sprout, + % to control (rice (Diamant variety) [1]; [4]): 9%
Length, root (rice (Diamant variety) [1]; [5]): 5.9 cm
Length, root, + % to control (rice (Diamant variety) [1]; [5]): 13%
Length, sprout (rice (Diamant variety) [1]; [5]): 3.0 cm
Length, sprout, + % to control (rice (Diamant variety) [1]; [5]): 20%
Mass, dry, root (rice (Diamant variety) [1]; [5]): 0.24 g/100 plantlings
Mass, dry, root, + % to control (rice (Diamant variety) [1]; [5]): 41%
Mass, dry, sprout (rice (Diamant variety) [1]; [5]): 0.26 g/100 plantlings
Mass, dry, sprout, + % to control (rice (Diamant variety) [1]; [5]): 24%
Mass, wet, root (rice (Diamant variety) [1]; [5]): 1.21 g/100 plantlings
Mass, wet, root, + % to control (rice (Diamant variety) [1]; [5]): 26%
Mass, wet, sprout (rice (Diamant variety) [1]; [5]): 2.16 g/100 plantlings
Mass, wet, sprout, + % to control (rice (Diamant variety) [1]; [5]): 23%
Length, root (rice (Diamant variety) [1]; [6]): 6.3 cm
Length, root, + % to control (rice (Diamant variety) [1]; [6]): 21%
Length, sprout (rice (Diamant variety) [1]; [6]): 3.1 cm
Length, sprout, + % to control (rice (Diamant variety) [1]; [6]): 24%
Mass, dry, root (rice (Diamant variety) [1]; [6]): 0.27 g/100 plantlings
Mass, dry, root, + % to control (rice (Diamant variety) [1]; [6]): 59%
Mass, dry, sprout (rice (Diamant variety) [1]; [6]): 0.28 g/100 plantlings
Mass, dry, sprout, + % to control (rice (Diamant variety) [1]; [6]): 33%
Mass, wet, root (rice (Diamant variety) [1]; [6]): 1.24 g/100 plantlings
Mass, wet, root, + % to control (rice (Diamant variety) [1]; [6]): 29%
Mass, wet, sprout (rice (Diamant variety) [1]; [6]): 2.25 g/100 plantlings
Mass, wet, sprout, + % to control (rice (Diamant variety) [1]; [6]): 28%
Length, root (rice (Diamant variety) [1]; [7]): 6.6 cm
Length, root, + % to control (rice (Diamant variety) [1]; [7]): 27%
Length, sprout (rice (Diamant variety) [1]; [7]): 3.2 cm
Length, sprout, + % to control (rice (Diamant variety) [1]; [7]): 28%
Mass, dry, root (rice (Diamant variety) [1]; [7]): 0.30 g/100 plantlings
Mass, dry, root, + % to control (rice (Diamant variety) [1]; [7]): 76%
Mass, dry, sprout (rice (Diamant variety) [1]; [7]): 0.32 g/100 plantlings
Mass, dry, sprout, + % to control (rice (Diamant variety) [1]; [7]): 52%
Mass, wet, root (rice (Diamant variety) [1]; [7]): 1.29 g/100 plantlings
Mass, wet, root, + % to control (rice (Diamant variety) [1]; [7]): 34%
Mass, wet, sprout (rice (Diamant variety) [1]; [7]): 2.36 g/100 plantlings
Mass, wet, sprout, + % to control (rice (Diamant variety) [1]; [7]): 34%
Length, root (rice (Diamant variety) [1]; [8]): 6.4 cm
Length, root, + % to control (rice (Diamant variety) [1]; [8]): 23%
Length, sprout (rice (Diamant variety) [1]; [8]): 3.0 cm
Length, sprout, + % to control (rice (Diamant variety) [1]; [8]): 20%
Mass, dry, root (rice (Diamant variety) [1]; [8]): 0.28 g/100 plantlings
Mass, dry, root, + % to control (rice (Diamant variety) [1]; [8]): 65%
Mass, dry, sprout (rice (Diamant variety) [1]; [8]): 0.29 g/100 plantlings
Mass, dry, sprout, + % to control (rice (Diamant variety) [1]; [8]): 38%
Mass, wet, root (rice (Diamant variety) [1]; [8]): 1.27 g/100 plantlings
Mass, wet, root, + % to control (rice (Diamant variety) [1]; [8]): 32%
Mass, wet, sprout (rice (Diamant variety) [1]; [8]): 2.28 g/100 plantlings
Mass, wet, sprout, + % to control (rice (Diamant variety) [1]; [8]): 29.5%
Length, root (rice (Diamant variety) [1]; [9]): 6.0 cm
Length, root, + % to control (rice (Diamant variety) [1]; [9]): 15%
Length, sprout (rice (Diamant variety) [1]; [9]): 2.9 cm
Length, sprout, + % to control (rice (Diamant variety) [1]; [9]): 16%
Mass, dry, root (rice (Diamant variety) [1]; [9]): 0.23 g/100 plantlings
Mass, dry, root, + % to control (rice (Diamant variety) [1]; [9]): 35%
Mass, dry, sprout (rice (Diamant variety) [1]; [9]): 0.27 g/100 plantlings
Mass, dry, sprout, + % to control (rice (Diamant variety) [1]; [9]): 28.5%
Mass, wet, root (rice (Diamant variety) [1]; [9]): 1.22 g/100 plantlings
Mass, wet, root, + % to control (rice (Diamant variety) [1]; [9]): 27%
Mass, wet, sprout (rice (Diamant variety) [1]; [9]): 1.98 g/100 plantlings
Mass, wet, sprout, + % to control (rice (Diamant variety) [1]; [9]): 12.5%
Length, root (rice (Diamant variety) [1]; [10]): 5.6 cm
Length, root, + % to control (rice (Diamant variety) [1]; [10]): 8%
Length, sprout (rice (Diamant variety) [1]; [10]): 2.7 cm
Length, sprout, + % to control (rice (Diamant variety) [1]; [10]): 8%
Mass, dry, root (rice (Diamant variety) [1]; [10]): 0.19 g/100 plantlings
Mass, dry, root, + % to control (rice (Diamant variety) [1]; [10]): 12%
Mass, dry, sprout (rice (Diamant variety) [1]; [10]): 0.26 g/100 plantlings
Mass, dry, sprout, + % to control (rice (Diamant variety) [1]; [10]): 24%
Mass, wet, root (rice (Diamant variety) [1]; [10]): 1.06 g/100 plantlings
Mass, wet, root, + % to control (rice (Diamant variety) [1]; [10]): 10%
Mass, wet, sprout (rice (Diamant variety) [1]; [10]): 1.88 g/100 plantlings
Mass, wet, sprout, + % to control (rice (Diamant variety) [1]; [10]): 7%
dry mass of the roots increased by (rice (Diamant variety) [1]; [11]): 76%
dry mass of the sprouts increased by (rice (Diamant variety) [1]; [11]): 52%
length of the root increased by (rice (Diamant variety) [1]; [11]): 27%
length of the sprout increased by (rice (Diamant variety) [1]; [11]): 28%
wet mass of the roots increased by (rice (Diamant variety) [1]; [11]): 34%
wet mass of the sprouts increased by (rice (Diamant variety) [1]; [11]): 34%
Germination energy, % (rice (Diamant variety) [2]; [12]): 86.3%
Germination rate, % (rice (Diamant variety) [2]; [12]): 93.3%
Germination energy (rice (Diamant variety) [2]; rice, 1·10^−10% solution): 85.0%
Germination rate (rice (Diamant variety) [2]; rice, 1·10^−10% solution): 92.0%
Germination energy (rice (Diamant variety) [2]; [13]): 75.9%
Germination rate (rice (Diamant variety) [2]; [13]): 81.0%
Germination energy (rice (Diamant variety) [2]; [14]): 76.0%
Germination rate (rice (Diamant variety) [2]; [14]): 83.3%
Germination energy (rice (Diamant variety) [2]; [15]): 79.3%
Germination rate (rice (Diamant variety) [2]; [15]): 85.0%
Germination energy (rice (Diamant variety) [2]; [16]): 82.0%
Germination rate (rice (Diamant variety) [2]; [16]): 87.0%
Germination energy (rice (Diamant variety) [2]; [17]): 85.0%
Germination rate (rice (Diamant variety) [2]; [17]): 92.0%
Germination energy (rice (Diamant variety) [2]; [18]): 83.3%
Germination rate (rice (Diamant variety) [2]; [18]): 89.3%
Germination energy (rice (Diamant variety) [2]; [19]): 78.3%
Germination rate (rice (Diamant variety) [2]; [19]): 84.3%
